Article PMC8405091, “Microwave-assisted Phospha-Michael addition reactions in the 13α-oestrone series and in vitro antiproliferative properties” (Journal of Enzyme Inhibition and Medicinal Chemistry, 2021)

Assays:
Type in all cases: cell-based, human
A2780 cells = assay: MTT antiproliferative assay, A2780; conditions: 72 h; for inhibition at 10 µM / inhibition at 30 µM: Homo sapiens, A2780, 72 h, read-out: Growth inhibition, % ± SEM
Method: (§1) The antiproliferative properties of the newly synthesized compounds (9–20) and their starting materials (4 and 5) were determined on a panel of human adherent cancer cell lines. MCF-7, MDA-MB-231 and T47D were isolated from breast cancers differing in biochemical background, while A2780 cells were isolated from ovarian cancer. HeLa and SiHa are cervical cancer cell lines positive for HPV-18 and HPV-16, respectively, while C33-A cervical cancer cells are negative for HPV. Moreover, two oropharyngeal cancer cell lines were also utilized: the HPV-negative UPCI-SCC-131 and HPV-16 positive UPCI-SCC-154. The cancer selectivity of compounds was tested on the non-cancerous mouse embryo fibroblast cell line NIH/3T3. All cell lines were purchased from European Collection of Cell Cultures (ECCAC, Salisbury, UK) exception for SiHa and C33-A (American Tissue Culture Collection, Manassas, VA, USA) and HN-SCC-131 and UPCI-SCC-154 (German Collection of Microorganisms and Cell Cultures GmbH, Braunschweig, Germany). Cells were cultivated in minimal essential medium supplemented with 10% fetal bovine serum, 1% non-essential amino acids and an antibiotic–antimycotic mixture. The medium of oropharyngeal cancer cells additionally contained 2.0 mM L-glutamine. All media and supplements were obtained from Lonza Group Ltd., Basel, Switzerland. Near-confluent cancer cells were seeded onto a 96-well microplate at a density of 5,000 cells/well, except for C33-A which were seeded at 10,000/well. After overnight standing, new medium containing the tested compounds at 10 and 30 µM final concentration was added. After incubation for 72 h at 37 °C in humidified air containing 5% CO2, the living cells were assayed by the addition of 20 μL of 5 mg/ml 3-(4,5-dimethylthiazol-2-yl)-2,5-diphenyltetrazolium bromide (MTT) solution. MTT was converted by intact mitochondrial reductase and precipitated as purple crystals during a 4-h contact period. The medium was next removed and the precipitated formazan crystals were dissolved in 100 μL of DMSO during a 60-min period of shaking at 37 ^оC.
(§2) All in vitro experiments were carried out twice with five parallels. Stock solutions of the tested substances (10 mM) were prepared in DMSO. […] Cisplatin (Ebewe Pharma GmbH, Unterach, Austria) was used as positive control.

HeLa cells = assay: MTT antiproliferative assay, HeLa; conditions: 72 h; for inhibition at 10 µM / inhibition at 30 µM: Homo sapiens; for inhibition at 10 µM: read-out: Growth inhibition, % ± SEM, 10 μM; for inhibition at 30 µM: read-out: Growth inhibition, % ± SEM, 30 μM
Method: as §1, §2

UPCI-SCC-131 cells = assay: MTT antiproliferative assay, UPCI-SCC-131; conditions: 72 h, 72 h; for inhibition at 10 µM / inhibition at 30 µM: Homo sapiens, read-out: Growth inhibition, % ± SEM
Method: as §1, §2

SiHa cells = assay: MTT antiproliferative assay, SiHa; conditions: 72 h; for inhibition at 10 µM / inhibition at 30 µM: Homo sapiens; for inhibition at 10 µM: read-out: Growth inhibition, % ± SEM, 10 μM; for inhibition at 30 µM: read-out: Growth inhibition, % ± SEM, 30 μM
Method: as §1, §2

C33-A cells = assay: MTT antiproliferative assay, C33-A; conditions: 72 h; for inhibition at 10 µM / inhibition at 30 µM: Homo sapiens, C-33-A; for inhibition at 10 µM: read-out: Growth inhibition, % ± SEM, C33-A, 10 μM; for inhibition at 30 µM: read-out: Growth inhibition, % ± SEM, C33-A, 30 μM; for Growth inhibition; % ± SEM: C33-A
Method: as §1, §2

MDA-MB-231 cells = assay: MTT antiproliferative assay, MDA-MB-231; conditions: for inhibition at 10 µM / inhibition at 30 µM: Homo sapiens, MDA-MB-231, 72 h, read-out: Growth inhibition, % ± SEM; for Growth inhibition; % ± SEM: 72 h
Method: as §1, §2

T47D cells = assay: MTT antiproliferative assay, T47D; conditions: 72 h; for inhibition at 10 µM / inhibition at 30 µM: Homo sapiens; for inhibition at 10 µM: read-out: Growth inhibition, % ± SEM, 10 μM; for inhibition at 30 µM: read-out: Growth inhibition, % ± SEM, 30 μM
Method: as §1, §2

UPCI-SCC-154 cells = assay: MTT antiproliferative assay, UPCI-SCC-154; conditions: 72 h, 72 h; for inhibition at 10 µM / inhibition at 30 µM: Homo sapiens, read-out: Growth inhibition, % ± SEM
Method: as §1, §2

MCF-7 cells = assay: MTT antiproliferative assay, MCF-7; conditions: 72 h; for inhibition at 10 µM / inhibition at 30 µM: Homo sapiens, MCF7, 72 h, read-out: Growth inhibition, % ± SEM
Method: as §1, §2

SMILES	inhibition at 10 µM (A2780 cells; A2780, 10 μM) [%]	inhibition at 30 µM (A2780 cells; A2780, 30 μM) [%]	inhibition at 10 µM (HeLa cells) [%]	inhibition at 30 µM (HeLa cells) [%]	inhibition at 10 µM (UPCI-SCC-131 cells; UPCI-SCC-131, 10 μM) [%]	inhibition at 30 µM (UPCI-SCC-131 cells; UPCI-SCC-131, 30 μM) [%]	inhibition at 10 µM (SiHa cells) [%]	inhibition at 30 µM (SiHa cells) [%]	inhibition at 10 µM (C33-A cells) [%]	inhibition at 30 µM (C33-A cells) [%]	inhibition at 10 µM (MDA-MB-231 cells) [%]	inhibition at 30 µM (MDA-MB-231 cells) [%]	inhibition at 10 µM (T47D cells) [%]	inhibition at 30 µM (T47D cells) [%]	inhibition at 10 µM (UPCI-SCC-154 cells; UPCI-SCC-154, 10 μM) [%]	inhibition at 30 µM (UPCI-SCC-154 cells; UPCI-SCC-154, 30 μM) [%]	inhibition at 10 µM (MCF-7 cells; MCF-7, 10 μM) [%]	inhibition at 30 µM (MCF-7 cells; MCF-7, 30 μM) [%]	also measured
COc1ccc2c(c1)CCC1C2CCC2(C)C(=O)C(CP(=O)(c3ccc4ccccc4c3)c3ccc4ccccc4c3)CC12 (stereo not drawn) [Compound 17, [(3-methoxy-17-oxo-13α-oestra-1,3,5(10)-trien-16α-yl)methyl]di(naphtalen-2-yl)phosphine oxide]	< 20	< 20	< 20	< 20	26.5 ± 1.7	45.3 ± 1.84	< 20	< 20	< 20	< 20	< 20	< 20	< 20	27.1 ± 2.93	< 20	20.3 ± 2.69	< 20	< 20	
Cc1ccc(P(=O)(C[C@H]2C[C@H]3[C@@H]4CCc5cc(OCc6ccccc6)ccc5[C@H]4CC[C@@]3(C)C2=O)c2ccc(C)cc2)cc1 [Compound 16, [(3-benzyloxy-17-oxo-13α-oestra-1,3,5(10)-trien-16β-yl)methyl]di-p-tolylphosphine oxide]	< 20	67.3 ± 3.04	< 20	31.8 ± 2.27	49.5 ± 2.27	67.4 ± 1.11	< 20	< 20	< 20	59.1 ± 0.69	< 20	< 20	23.6 ± 1.22	64.5 ± 1.6	< 20	31.6 ± 2.41	< 20	< 20	
COc1ccc2c(c1)CCC1C2CCC2(C)C(=O)C(CP(=O)(c3ccc4ccccc4c3)c3ccc4ccccc4c3)CC12 (stereo not drawn) [Compound 18, [(3-methoxy-17-oxo-13α-oestra-1,3,5(10)-trien-16β-yl)methyl]di(naphtalen-2-yl)phosphine oxide]																			Growth inhibition; % ± SEM (A2780 cells; A2780, 10 μM): – (Inhibition values <20% are not presented.); Growth inhibition; % ± SEM (A2780 cells; A2780, 30 μM): – (Inhibition values <20% are not presented.); Growth inhibition; % ± SEM (HeLa cells; 10 μM): – (Inhibition values <20% are not presented.); Growth inhibition; % ± SEM (HeLa cells; 30 μM): – (Inhibition values <20% are not presented.); Growth inhibition; % ± SEM (UPCI-SCC-131 cells; UPCI-SCC-131, 10 μM, 10 µM): 46.39 ± 1.19%; Growth inhibition; % ± SEM (UPCI-SCC-131 cells; UPCI-SCC-131, 30 μM, 30 µM): 64.55 ± 1.29%; Growth inhibition; % ± SEM (SiHa cells; 10 μM): – (Inhibition values <20% are not presented.); Growth inhibition; % ± SEM (SiHa cells; 30 μM): – (Inhibition values <20% are not presented.); Growth inhibition; % ± SEM (C33-A cells; 10 μM): – (Inhibition values <20% are not presented.); Growth inhibition; % ± SEM (C33-A cells; 30 μM): 20.25 ± 1.01%; Growth inhibition; % ± SEM (MDA-MB-231 cells; MDA-MB-231, 10 μM): – (Inhibition values <20% are not presented.); Growth inhibition; % ± SEM (MDA-MB-231 cells; MDA-MB-231, 30 μM): – (Inhibition values <20% are not presented.); Growth inhibition; % ± SEM (T47D cells; 10 μM): – (Inhibition values <20% are not presented.); Growth inhibition; % ± SEM (T47D cells; 30 μM): – (Inhibition values <20% are not presented.); Growth inhibition; % ± SEM (UPCI-SCC-154 cells; UPCI-SCC-154, 10 μM): – (Inhibition values <20% are not presented.); Growth inhibition; % ± SEM (UPCI-SCC-154 cells; UPCI-SCC-154, 30 μM, 30 µM): – (Inhibition values <20% are not presented.); Growth inhibition; % ± SEM (MCF-7 cells; MCF-7, 10 μM): – (Inhibition values <20% are not presented.); Growth inhibition; % ± SEM (MCF-7 cells; MCF-7, 30 μM): – (Inhibition values <20% are not presented.)
Cc1ccc(P(=O)(C[C@@H]2C[C@H]3[C@@H]4CCc5cc(OCc6ccccc6)ccc5[C@H]4CC[C@@]3(C)C2=O)c2ccc(C)cc2)cc1 [Compound 15, [(3-benzyloxy-17-oxo-13α-oestra-1,3,5(10)-trien-16α-yl)methyl]di-p-tolylphosphine oxide]	< 20	49.4 ± 2.06	< 20	27.4 ± 1.57	24.6 ± 1.39	60.2 ± 1.32	< 20	< 20	< 20	26.9 ± 0.84	< 20	< 20	39.1 ± 2.01	58.5 ± 0.8	< 20	34.7 ± 1.36	< 20	< 20	
CC12CCC3c4ccc(OCc5ccccc5)cc4CCC3C1CC(CP(=O)(c1ccc3ccccc3c1)c1ccc3ccccc3c1)C2=O (stereo not drawn) [Compound 19, [(3-benzyloxy-17-oxo-13α-oestra-1,3,5(10)-trien-16α-yl)methyl]di(naphtalen-2-yl)phosphine oxide]	< 20	28.5 ± 2.35	31 ± 1.11				23.2 ± 1.36		28.1 ± 1.39	34.7 ± 1.7	< 20	< 20	59.4 ± 2.44	62.4 ± 1.7	34.3 ± 2.8		31.8 ± 2.47	40.6 ± 1.71	Growth inhibition; % ± SEM (HeLa cells; 30 μM): 48.89 ± 0.90%; Growth inhibition; % ± SEM (UPCI-SCC-131 cells; UPCI-SCC-131, 10 μM, 10 µM): – (Inhibition values <20% are not presented.); Growth inhibition; % ± SEM (UPCI-SCC-131 cells; UPCI-SCC-131, 30 μM, 30 µM): 40.98 ± 2.94%; Growth inhibition; % ± SEM (SiHa cells; 30 μM): 40.30 ± 2.00%; Growth inhibition; % ± SEM (UPCI-SCC-154 cells; UPCI-SCC-154, 30 μM, 30 µM): 48.81 ± 2.15%
COc1ccc2c(c1)CC[C@@H]1[C@@H]2CC[C@@]2(C)C(=O)[C@@H](CP(=O)(c3ccccc3)c3ccccc3)C[C@@H]12 [Compound 10, [(3-methoxy-17-oxo-13α-oestra-1,3,5(10)-trien-16β-yl)methyl]diphenylphosphine oxide]	< 20	64.2 ± 2.65	< 20	21.5 ± 2.99	39.8 ± 1.36	72.9 ± 1.7	< 20	< 20	22 ± 1.84	27.2 ± 1.85	< 20	< 20	< 20	61.1 ± 1.06	< 20	24.3 ± 2.84	< 20	35.9 ± 3.3	
C[C@@]12CC[C@@H]3c4ccc(OCc5ccccc5)cc4CC[C@H]3[C@@H]1C[C@@H](CP(=O)(c1ccccc1)c1ccccc1)C2=O [Compound 11, [(3-benzyloxy-17-oxo-13α-oestra-1,3,5(10)-trien-16α-yl)methyl]diphenylphosphine oxide]	< 20	21.9 ± 2.63	< 20	23.8 ± 2.11	20.9 ± 1.67	62.5 ± 1.4	< 20	30.2 ± 2.99	< 20	40.3 ± 0.95	< 20	< 20	24.7 ± 1.7	59 ± 1.38	< 20	38.6 ± 2.6	< 20	37.1 ± 0.72	
